Measured values as given in patent US8802597B2, “Herbicidal pyrimidines” (E I du Pont de Nemours and Company, priority 2003, dated 2014).
Where two headings read alike, the source gives them in different places.

How the values were obtained:
Format in all cases: in vivo
[1] = system: goosegrass (Eleusine indica); assay: Test C pre/postemergence; details: Preemergence
From the text: (§1) Seeds or nutlets of plant species selected from bermudagrass (Cynodon dactylon), Surinam grass (Brachiaria decumbens), cocklebur (Xanthium strumarium), corn (Zea mays), crabgrass (Digitaria sanguinalis), woolly cupgrass (Eriochloa villosa), giant foxtail (Setaria faberii), goosegrass (Eleusine indica), johnsongrass (Sorghum halepense), kochia (Kochia scoparia), lambsquarters (Chenopodium album), morningglory (Ipomoea coccinea), eastern black nightshade (Solanum ptycanthum), yellow nutsedge (Cyperus esculentus), pigweed (Amaranthus retroflexus), common ragweed (Ambrosia elatior), soybean (Glycine max), common (oilseed) sunflower (Helianthus annuus), and velvetleaf (Abutilon theophrasti) were planted and treated preemergence with test chemicals formulated in a non-phytotoxic solvent mixture which included a surfactant.
(§2) At the same time, plants selected from these crop and weed species and also winter barley (Hordeum vulgare), blackgrass (Alopecurus myosuroides), canarygrass (Phalaris minor), chickweed (Stellaria media), downy brome (Bromus tectorum), green foxtail (Setaria viridis), Italian ryegrass (Lolium multiflorum), wheat (Triticum aestivum), wild oat (Avena fatua) and windgrass (Apera spica-venti) were treated with postemergence applications of some of the test chemicals formulated in the same manner. Plants ranged in height from 2 to 18 cm (1- to 4-leaf stage) for postemergence treatments. Plant species in the flooded paddy test consisted of rice (Oryza sativa), umbrella sedge (Cyperus difformis), duck salad (Heteranthera limosa) and barnyardgrass (Echinochloa crus-galli) grown to the 2-leaf stage for testing. Treated plants and controls were maintained in a greenhouse for 12 to 14 days, after which time all species were compared to controls and visually evaluated. Plant response ratings, summarized in Table C, are based on a scale of 0 to 100 where 0 is no effect and 100 is complete control. A dash (-) response means no test result.

soybean (Glycine max) = assay: Test C pre/postemergence; details: Preemergence
From the text: as §1, §2

corn (Zea mays) = assay: Test C pre/postemergence; details: Preemergence
From the text: as §1, §2

[2] = system: lambsquarters (Chenopodium album); assay: Test C pre/postemergence; details: Preemergence
From the text: as §1, §2

[3] = system: giant foxtail (Setaria faberi); assay: Test A pre/postemergence; details: for pest or weed control at 125 g/ha / pest or weed control at 500 g/ha: Setaria faberi, 240 h, read-out: Plant response rating, Foxtail, Giant
In short: (§3)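 Soil: loam blended with sand. Formulation: non-phytotoxic solvent mixture with surfactant. Timing: preemergence soil spray plus concurrent postemergence spray (plants 2–10 cm, 1–2 leaves). Readout: visual injury versus untreated controls at ~10 days, 0–100.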

[4] = system: morningglory (Ipomoea spp.); assay: Test A pre/postemergence; details: for pest or weed control at 125 g/ha / pest or weed control at 500 g/ha: Ipomoea, 240 h, read-out: Plant response rating, Morningglory
In short: as §3

[5] = system: barnyardgrass (Echinochloa crus-galli); assay: Test A pre/postemergence; details: for pest or weed control at 125 g/ha / pest or weed control at 500 g/ha: Echinochloa crus-galli, 240 h, read-out: Plant response rating, Barnyardgrass
In short: as §3

[6] = system: velvetleaf (Abutilon theophrasti); assay: Test A pre/postemergence; details: for pest or weed control at 125 g/ha / pest or weed control at 500 g/ha: Abutilon theophrasti, 240 h, read-out: Plant response rating, Velvetleaf
In short: as §3

[7] = system: redroot pigweed (Amaranthus retroflexus); assay: Test A pre/postemergence; details: for pest or weed control at 125 g/ha / pest or weed control at 500 g/ha: Amaranthus retroflexus, 240 h, read-out: Plant response rating, Pigweed
In short: as §3

[8] = system: crabgrass (Digitaria sanguinalis); assay: Test A pre/postemergence; details: for pest or weed control at 125 g/ha / pest or weed control at 500 g/ha: Digitaria sanguinalis, 240 h, read-out: Plant response rating, Crabgrass
In short: as §3

[9] = 62 g ai/ha, scale 0 to 100, 0 no effect, 100 complete control
[10] = 31 g ai/ha, scale 0 to 100, 0 no effect, 100 complete control
[11] = post-emergence, Postemergence, 125 g ai/ha, 0 to 100 scale (0 no effect, 100 complete control)
[12] = post-emergence, Postemergence, 500 g ai/ha, 0 to 100 scale (0 no effect, 100 complete control)
[13] = pre-emergence, Preemergence, 125 g ai/ha, 0 to 100 scale where 0 is no effect and 100 is complete control, approximately ten days
[14] = pre-emergence, Preemergence, 500 g ai/ha, 0 to 100 scale where 0 is no effect and 100 is complete control, approximately ten days
[15] = Postemergence, 125 g ai/ha, 0 to 100 scale (0 no effect, 100 complete control)
[16] = Postemergence, 500 g ai/ha, 0 to 100 scale (0 no effect, 100 complete control)
[17] = Preemergence, 125 g ai/ha, 0 to 100 scale where 0 is no effect and 100 is complete control, approximately ten days
[18] = Preemergence, 500 g ai/ha, 0 to 100 scale where 0 is no effect and 100 is complete control, approximately ten days

## CCOC(=O)Cc1nc(C2CC2)nc(N=CN(C)C)c1Br [Compound 33]
[1]; [9]
  Plant response rating, Goosegrass: 0
[1]; 125 g ai/ha, scale 0 to 100
  Plant response rating, Goosegrass: 0
[1]; 250 g ai/ha, scale 0 to 100
  Plant response rating, Goosegrass: 0
[1]; 500 g ai/ha, scale 0 to 100
  Plant response rating, Goosegrass: 0
Soybean (Glycine max); [9]
  Plant response rating, Soybean: 0
Soybean (Glycine max); 125 g ai/ha, scale 0 to 100
  Plant response rating, Soybean: 30
Soybean (Glycine max); 250 g ai/ha, scale 0 to 100
  Plant response rating, Soybean: 80
Soybean (Glycine max); 500 g ai/ha, scale 0 to 100
  Plant response rating, Soybean: 90
Corn (Zea mays); [9]
  Plant response rating, Corn: 0
Corn (Zea mays); 125 g ai/ha, scale 0 to 100
  Plant response rating, Corn: 0
Corn (Zea mays); 250 g ai/ha, scale 0 to 100
  Plant response rating, Corn: 30
Corn (Zea mays); 500 g ai/ha, scale 0 to 100
  Plant response rating, Corn: 40
[2]; 250 g ai/ha, scale 0 to 100
  Plant response rating, Lambsquarters: 85

## CCOC(=O)Cc1nc(C2CC2)nc(N)c1Br [Compound 12]
[1]; [10]
  Plant response rating, Goosegrass: 0
[1]; [9]
  Plant response rating, Goosegrass: 0
[1]; 125 g ai/ha, scale 0 to 100
  Plant response rating, Goosegrass: 0
[1]; 250 g ai/ha, scale 0 to 100
  Plant response rating, Goosegrass: 0
Soybean (Glycine max); [9]
  Plant response rating, Soybean: 50
Soybean (Glycine max); 250 g ai/ha, scale 0 to 100
  Plant response rating, Soybean: 70
Corn (Zea mays); [10]
  Plant response rating, Corn: 0
Corn (Zea mays); [9]
  Plant response rating, Corn: 30
Corn (Zea mays); 125 g ai/ha, scale 0 to 100
  Plant response rating, Corn: 60
[2]; [10]
  Plant response rating, Lambsquarters: 0
[2]; [9]
  Plant response rating, Lambsquarters: 10
[2]; 125 g ai/ha, scale 0 to 100
  Plant response rating, Lambsquarters: 40
[2]; 250 g ai/ha, scale 0 to 100
  Plant response rating, Lambsquarters: 70

## CCOC(=O)c1nc(-c2ccc3c(c2)OCO3)nc(N)c1Cl [Compound 74]
[3]; [11]
  pest or weed control at 125 g/ha: 60%
[3]; [12]
  pest or weed control at 500 g/ha: 70%
[3]; [13]
  pest or weed control at 125 g/ha: 0%
[3]; [14]
  pest or weed control at 500 g/ha: 40%
[4]; [11]
  pest or weed control at 125 g/ha: 40%
[4]; [12]
  pest or weed control at 500 g/ha: 30%
[4]; [13]
  pest or weed control at 125 g/ha: 0%
[4]; [14]
  pest or weed control at 500 g/ha: 30%
[5]; [11]
  pest or weed control at 125 g/ha: 30%
[5]; [12]
  pest or weed control at 500 g/ha: 70%
[5]; [13]
  pest or weed control at 125 g/ha: 0%
[5]; [14]
  pest or weed control at 500 g/ha: 50%
[6]; [11]
  pest or weed control at 125 g/ha: 70%
[6]; [12]
  pest or weed control at 500 g/ha: 80%
[6]; [13]
  pest or weed control at 125 g/ha: 30%
[6]; [14]
  pest or weed control at 500 g/ha: 50%
[7]; [11]
  pest or weed control at 125 g/ha: 60%
[7]; [12]
  pest or weed control at 500 g/ha: 70%
[7]; [13]
  pest or weed control at 125 g/ha: 0%
[7]; [14]
  pest or weed control at 500 g/ha: 40%
[8]; [11]
  pest or weed control at 125 g/ha: 30%
[8]; [12]
  pest or weed control at 500 g/ha: 60%
[8]; [13]
  pest or weed control at 125 g/ha: 20%
[8]; [14]
  pest or weed control at 500 g/ha: 50%

## COC(=O)c1nc(-c2ccc(I)cc2)nc(N)c1Br [Compound 128]
[3]; [15]
  Plant response rating, Foxtail, Giant: 0
[3]; [16]
  Plant response rating, Foxtail, Giant: 0
[3]; [17]
  Plant response rating, Foxtail, Giant: 0
[3]; [18]
  Plant response rating, Foxtail, Giant: 0
[4]; [15]
  Plant response rating, Morningglory: 55
[4]; [16]
  Plant response rating, Morningglory: 80
[4]; [17]
  Plant response rating, Morningglory: 0
[4]; [18]
  Plant response rating, Morningglory: 0
[5]; [15]
  Plant response rating, Barnyardgrass: 0
[5]; [16]
  Plant response rating, Barnyardgrass: 0
[5]; [17]
  Plant response rating, Barnyardgrass: 0
[5]; [18]
  Plant response rating, Barnyardgrass: 0
[6]; [15]
  Plant response rating, Velvetleaf: 65
[6]; [16]
  Plant response rating, Velvetleaf: 80
[6]; [17]
  Plant response rating, Velvetleaf: 0
[6]; [18]
  Plant response rating, Velvetleaf: 0
[7]; [15]
  Plant response rating, Pigweed: 55
[7]; [16]
  Plant response rating, Pigweed: 75
[7]; [17]
  Plant response rating, Pigweed: 0
[7]; [18]
  Plant response rating, Pigweed: 0
[8]; [15]
  Plant response rating, Crabgrass: 0
[8]; [16]
  Plant response rating, Crabgrass: 0
[8]; [17]
  Plant response rating, Crabgrass: 0
[8]; [18]
  Plant response rating, Crabgrass: 0

## COC(=O)c1nc(-c2ccc(Br)cc2)nc(N)c1Cl [Compound 96, methyl 6-amino-2-(4-bromophenyl)-5-chloro-4-pyrimidinecarboxylate]
[3]; [11]
  pest or weed control at 125 g/ha: 25%
[3]; [12]
  pest or weed control at 500 g/ha: 35%
[3]; [13]
  pest or weed control at 125 g/ha: 5%
[3]; [14]
  pest or weed control at 500 g/ha: 10%
[4]; [11]
  pest or weed control at 125 g/ha: 60%
[4]; [12]
  pest or weed control at 500 g/ha: 65%
[4]; [13]
  pest or weed control at 125 g/ha: 15%
[4]; [14]
  pest or weed control at 500 g/ha: 80%
[5]; [11]
  pest or weed control at 125 g/ha: 20%
[5]; [12]
  pest or weed control at 500 g/ha: 25%
[5]; [13]
  pest or weed control at 125 g/ha: 5%
[5]; [14]
  pest or weed control at 500 g/ha: 10%
[6]; [11]
  pest or weed control at 125 g/ha: 80%
[6]; [12]
  pest or weed control at 500 g/ha: 85%
[6]; [13]
  pest or weed control at 125 g/ha: 65%
[6]; [14]
  pest or weed control at 500 g/ha: 80%
[7]; [11]
  pest or weed control at 125 g/ha: 70%
[7]; [12]
  pest or weed control at 500 g/ha: 85%
[7]; [13]
  pest or weed control at 125 g/ha: 80%
[7]; [14]
  pest or weed control at 500 g/ha: 80%
[8]; [11]
  pest or weed control at 125 g/ha: 5%
[8]; [12]
  pest or weed control at 500 g/ha: 20%
[8]; [13]
  pest or weed control at 125 g/ha: 50%
[8]; [14]
  pest or weed control at 500 g/ha: 65%
